Data as given in patent US6476252B1, “Flavorant compositions” (Givaudan Roure (International) SA, priority 1997, dated 2002).

Experiments:
oral cavity = assay: Expert panel evaluation in foods, beverages and consumer healthcare products; format: in vivo, human; settings: for character of mayonnaise base / character of sour cream / character of vegetable dip: 500 ppm compound; for character of toothpaste base: peppermint flavored toothpaste base; for character of sour cream: regular fat sour cream; for character of vegetable dip: vegetable soup mix with regular fat sour cream
Protocol: Mouthwash base was prepared by mixing 0.08 parts mouthwash flavor (commercially available from Givaudan Roure Flavors Ltd.), 0.5 parts Pluronic F-127, 0.5 parts polysorbate 20, 0.35 parts sodium lauryl sulfate, 5 parts glycerine, 0.015 parts sodium saccharin and 93.555 parts water. […] Toothpaste base (Opaque 13/02-5F) was flavored with peppermint flavor (Givaudan Roure peppermint flavor 10570-34) at 0.5% by weight. […] Mayonnaise base was prepared by mixing 59.8 parts whole egg, 24 parts vinegar (white, 5% acidity), 1.3 parts mustard, 2 parts sugar, 1 part salt and 219 parts vegetable oil. […] An onion dip was prepared by mixing a commercial package of onion soup mix (Lipton) with plain, regular fat sour cream and 1000 ppm of compound 9 as described and prepared according to example 9. […] 2.5 parts Maltrin M-10 (commercially available) was mixed with 0.05 parts pizza flavor (SNE Pizza Flavor 810841). 50 parts potato chips ([…]) were placed on a paper plate then microwaved for 30-60 seconds until surface oil glistened. […] A chewing gum was prepared according to methods known to those skilled in the art.

tumor = settings: H. Itokawa et al., Planta Medica (1987); cited from earlier work
xanthin oxidase = settings: T. Noro et al., Chem. Pharm. Bull. (1988); cited from earlier work
fungi = settings: A. M. Janssen et al., Planta Medica 1985; cited from earlier work
[1] = S. Mitsui et al., Chem. Pharm. Bull. (1976); cited from earlier work
Epstein-Barr virus = settings: A. Kondo et al., Biosci. Biotech. Biochem. (1993); cited from earlier work

SMILES	sensation imparted by mouthwash base (oral cavity; 100 ppm compound)	character of mayonnaise base (oral cavity)	character of toothpaste base (oral cavity; 100 ppm compound)	character of sour cream (oral cavity)	character of vegetable dip (oral cavity)	also measured
C=CC(OC(C)=O)c1ccc(OC(C)=O)c(OC)c1 (racemic) [Compound 2, (rac)-acetic acid 1-(4-acetoxy-3-methoxphenyl)-allyl ester]	–	–	–	–	–	character of orange flavored chewing gum (oral cavity; chewing gum, 1 g compound in the batch): warm/hot, peppery and pungent character, again without any lingering effect; anti-tumor activity (tumor): anti-tumor activity; inhibition of xanthin oxidase (xanthin oxidase): inhibit xanthin oxidase; anti-fungal activity (fungi): anti-fungal activity
C=CC(OC(=O)C(C)C)c1ccc(OC(=O)C(C)C)cc1 (racemic) [Compound 5, (rac)-isobutyric acid 1-(4-isobutyryloxy-phenyl)-allyl ester]	warm/hot, spicy and pungent sensation	–	–	–	–	–
C=CCC(OC(C)=O)c1ccc(OC(C)=O)cc1 (racemic) [Compound 9, (rac)-acetic acid 1-(4-acetoxyphenyl)-3-butenyl ester]	warm/hot, spicy and pungent sensation	warm/hot, spicy and pungent character	warm/hot, spicy and pungent character	warm/hot, spicy and pungent character without a lingering effect	warm/hot, peppery and pungent character without any lingering effect	character of onion dip (oral cavity; onion soup mix with regular fat sour cream, 1000 ppm compound): warm/hot, peppery and pungent character without a lingering effect
CCC(OC(C)=O)c1ccc(OC(C)=O)cc1 (racemic) [Compound 6, (rac-)-acetic acid 1-(4-acetoxy-phenyl)-propyl ester]	warm/hot, spicy and pungent sensation	warm/hot, spicy and pungent character	warm/hot, spicy and pungent character	warm/hot, spicy and pungent character without a lingering effect	warm/hot, peppery and pungent character without any lingering effect	character of pizza snack (potato chips) (oral cavity; potato chips with pizza flavor, dusted with 1000 ppm compound): warm/hot, peppery and pungent character
C=CC(OC(=O)CC)c1ccc(OC(=O)CC)c(OC)c1 (racemic) [Compound 3, (rac)-propionic acid 1-(4-propionoxy-3-methoxyphenyl)-allyl ester]	warm/hot, spicy and pungent sensation	–	–	–	–	–
CCC(OC(C)=O)c1ccc(OC(C)=O)c(OC)c1 (racemic) [Compound 7, (rac)-acetic acid 1-(4-acetoxy-3-methoxy-phenyl)-propyl ester]	warm/hot, spicy and pungent sensation	warm/hot, spicy and pungent character	warm/hot, spicy and pungent character	warm/hot, spicy and pungent character without a lingering effect	warm/hot, peppery and pungent character without any lingering effect	flavor of cordial base (oral cavity; 50 Proof cordial base with cinnamon flavor 0.2% by weight, 100 ppm compound): enhanced warm /hot, pungent flavor
C=CC(OC(C)=O)c1ccc(OC(C)=O)cc1 (racemic) [Compound 1, (rac)-acetic acid 1-(4-acetoxy-phenyl)-allyl ester]	warm/hot, spicy and pungent sensation	warm/hot, spicy and pungent character	warm/hot, spicy and pungent character	warm/hot, spicy and pungent character without a lingering effect	warm/hot, peppery and pungent character without any lingering effect	anti-ulcer activity [1]: anti-ulcer activity; inhibition of tumor promoter-induced Epstein-Barr virus activation (Epstein-Barr virus): potent inhibitor; anti-tumor activity (tumor): anti-tumor activity; inhibition of xanthin oxidase (xanthin oxidase): inhibit xanthin oxidase; anti-fungal activity (fungi): anti-fungal activity
C=CC(OC(=O)CC)c1ccc(OC(=O)CC)cc1 (racemic) [Compound 4, (rac)-propionic acid 1-(4-propionoxy-phenyl)-allyl ester]	warm/hot, spicy and pungent sensation	–	–	–	–	–
